For one assay, the system named is T. cruzi. Conditions: children aged six to 12 years with chronic disease; cited from earlier work.
The next assay concerns CD8^+ T cells. Nature of the assay: IFN-γ ELISPOT after vaccination of HLA-A2 transgenic mice with peptide-pulsed mature dendritic cells. It is filed as cell-based, HLA-A2 HHDII transgenic mice. As to conditions: splenic CD8+ T cells four weeks after second peptide-pool pulsed mDC vaccination; stimulated overnight with spleen cells pulsed with individual peptide 5 μg/ml; FIG. 2A. The text has this:
FIGS. 2A-C—Immunogenicity of predicted HLA-A2 restricted T. cruzi epitopes. HLA-A2 transgenic mice were vaccinated twice, two weeks apart with mature dendritic cells pulsed with functional TS (F-TS; FIG. 2A), Non-functional TS (NF-TS; FIG. 2B), or whole genome derived Non-TS peptide pools (FIG. 2C). One month later, CD8^+ T cells were isolated from control DC or peptide-pool pulsed DC vaccinated mice and stimulated overnight with APCs pulsed with individual F-TS, NF-TS, or Non-TS peptides in IFN-γ ELISPOT assays. Shown are mean±SE from representative experiments expressed as IFN-γ spot forming cells (SFC) per million CD8^+ T cells above DMSO control. Asterisks denote immunogenic peptides defined as responses greater than the mean+2 SE of all control CD8^+ T cell responses.
All animal studies were conducted in AAALAC accredited facilities and were approved by the Saint Louis University Institutional Animal Care and Use Committee. HLA-A2 HHDII transgenic mice were provided by Ted Hansen (Washington University) with permission from Marion Berard at the Institut Pasteur and were bred and housed under pathogen-free conditions throughout the inventors' studies (Pascolo et al., 1997). […]

In the case of `O=C(Cn1ccnc1[N+](=O)[O-])NCc1ccccc1` [benznidazole], the cure rate result in the assay on T. cruzi is recorded as “about 60%”. EVYSLVFARL [F-TS-2]: the “IFN-γ spot forming cells (SFC) per million CD8^+ T cells above DMSO control” value with CD8^+ T cells is recorded as 5,000 IFN-γ SFC/million CD8^+ T cells.

These data come from patent US10821164B2, “Peptides for inducing Chagas disease responses” (SAINT LOUIS UNIVERSITY, priority 2015, dated 2020).
